Source: ChEMBL document CHEMBL5625218, “An overview of limonoid synthetic derivatives as promising bioactive molecules” (Eur J Med Chem, 2023)
In brackets after ≈: the same amount, converted by molar mass. Values belong to the molecule of their own block, whether it stands above or below them.

Assays:
Mus musculus [1] = test: Anti-inflammatory activity in mouse model of xylene-induced auricle edema assessed as inhibition of ear swelling at 70 mg/ml, IG pre-treated for 1 hr followed by xylene addition and measured after 1 hr relative to control; assay type: functional; parameters: scale not given: the % may be the effect or the level left; settings: time 2 hrs
Mus musculus [2] = test: Antinociceptive activity in ip dosed mouse assessed as inhibition of acetic acid-induced abdominal constrictions by writhing test at 70 mg/ml relative to control; assay type: functional; parameters: scale not given: the % may be the effect or the level left
Plasmodium falciparum = test: Antiplasmodial activity against Plasmodium falciparum W2 infected in human erythrocytes assessed as reduction in parasite growth incubated for 48 hrs by YOYO-1 dye based flow cytometric analysis; assay type: functional, organism-based; settings: W2, 48 h
Staphylococcus aureus [3] = test: Antibacterial activity against Staphylococcus aureus ATCC 25923 assessed as reduction in bacterial growth incubated for 24 hrs by CLSI based Mueller-Hinton broth assay; assay type: functional
Staphylococcus aureus [4] = test: Antibacterial activity against methicillin-resistant Staphylococcus aureus 15019301 assessed as reduction in bacterial growth incubated for 24 hrs by CLSI based Mueller-Hinton broth assay; assay type: functional
Staphylococcus aureus [5] = test: Antibacterial activity against methicillin-resistant Staphylococcus aureus 15012406 assessed as reduction in bacterial growth incubated for 24 hrs by CLSI based Mueller-Hinton broth assay; assay type: functional
Staphylococcus aureus [6] = test: Antibacterial activity against methicillin-resistant Staphylococcus aureus 18032913 assessed as reduction in bacterial growth incubated for 24 hrs by CLSI based Mueller-Hinton broth assay; assay type: functional
Staphylococcus aureus [7] = test: Antibacterial activity against methicillin-resistant Staphylococcus aureus 17045463 assessed as reduction in bacterial growth incubated for 24 hrs by CLSI based Mueller-Hinton broth assay; assay type: functional
Tobacco mosaic virus [8] = test: Antiviral activity against TMV assessed as inactivation effect by measuring inhibition rate at 0.5 mg/ml measured after 72 hrs relative to control; assay type: functional; parameters: scale not given: the % may be the effect or the level left
Tobacco mosaic virus [9] = test: Antiviral activity against TMV assessed as curative effect by measuring inhibition rate at 0.5 mg/ml measured after 72 hrs relative to control; assay type: functional; parameters: scale not given: the % may be the effect or the level left
Tobacco mosaic virus [10] = test: Antiviral activity against TMV assessed as protection effect by measuring inhibition rate at 0.5 mg/ml measured after 72 hrs relative to control; assay type: functional; parameters: scale not given: the % may be the effect or the level left
Candida tropicalis = test: Antimicrobial activity against Candida tropicalis ATCC 18803 assessed as reduction in microbial growth incubated for 24 hrs by broth micro dilution method; assay type: functional
Cryptococcus neoformans = test: Antimicrobial activity Cryptococcus neoformans ATCC 28952 assessed as reduction in microbial growth incubated for 24 hrs by broth micro dilution method; assay type: functional
[11] = Antimicrobial activity Cryptococcus gattii VGI ATCC 2601 assessed as reduction in microbial growth incubated for 24 hrs by broth micro dilution method; assay type: functional
Diutina rugosa = test: Antimicrobial activity Candida rugosa DSM 2031 assessed as reduction in microbial growth incubated for 24 hrs by broth micro dilution method; assay type: functional
Candida parapsilosis = test: Antimicrobial activity Candida parapsilosis ATCC 22019 assessed as reduction in microbial growth incubated for 24 hrs by broth micro dilution method; assay type: functional; settings: Lodderomyces parapsilosis
Candida albicans = test: Antimicrobial activity against Candida albicans ATCC 10231 assessed as reduction in microbial growth incubated for 24 hrs by broth micro dilution method; assay type: functional
HCT-116 = test: Anticancer activity against human HCT-116 cells assessed as reduction in cell viability incubated for 72 hrs by MTT assay; assay type: functional, cell-based; settings: HCT-116, 72 h
HOS = test: Anticancer activity against human HOS cells assessed as reduction in cell viability incubated for 72 hrs by Alamar Blue assay; assay type: functional, cell-based
ES-2 = test: Anticancer activity against human ES2 cells assessed as reduction in cell viability incubated for 72 hrs by Alamar Blue assay; assay type: functional, cell-based; settings: ES-2, 72 h
A 172 = test: Anticancer activity against human A-172 cells assessed as reduction in cell viability incubated for 72 hrs by Alamar Blue assay; assay type: functional, cell-based; settings: A 172, 72 h
HepG2 = test: Anticancer activity against human HepG2 cells assessed as reduction in cell viability incubated for 72 hrs by Alamar Blue assay; assay type: functional, cell-based; settings: HepG2, 72 h
A549 = test: Anticancer activity against human A549 cells assessed as reduction in cell viability incubated for 72 hrs by Alamar Blue assay; assay type: functional, cell-based; settings: A549, 72 h
MDA-MB-231 = test: Anticancer activity against human MDA-MB-231 cells assessed as reduction in cell viability incubated for 72 hrs by Alamar Blue assay; assay type: functional, cell-based; settings: MDA-MB-231, 72 h
[12] = biological target: Voltage-gated inwardly rectifying potassium channel KCNH2 (Homo sapiens, UniProt Q12809); test: Inhibition of hERG; assay type: toxicity
Sequence of Voltage-gated inwardly rectifying potassium channel KCNH2 (Q12809 whole entry): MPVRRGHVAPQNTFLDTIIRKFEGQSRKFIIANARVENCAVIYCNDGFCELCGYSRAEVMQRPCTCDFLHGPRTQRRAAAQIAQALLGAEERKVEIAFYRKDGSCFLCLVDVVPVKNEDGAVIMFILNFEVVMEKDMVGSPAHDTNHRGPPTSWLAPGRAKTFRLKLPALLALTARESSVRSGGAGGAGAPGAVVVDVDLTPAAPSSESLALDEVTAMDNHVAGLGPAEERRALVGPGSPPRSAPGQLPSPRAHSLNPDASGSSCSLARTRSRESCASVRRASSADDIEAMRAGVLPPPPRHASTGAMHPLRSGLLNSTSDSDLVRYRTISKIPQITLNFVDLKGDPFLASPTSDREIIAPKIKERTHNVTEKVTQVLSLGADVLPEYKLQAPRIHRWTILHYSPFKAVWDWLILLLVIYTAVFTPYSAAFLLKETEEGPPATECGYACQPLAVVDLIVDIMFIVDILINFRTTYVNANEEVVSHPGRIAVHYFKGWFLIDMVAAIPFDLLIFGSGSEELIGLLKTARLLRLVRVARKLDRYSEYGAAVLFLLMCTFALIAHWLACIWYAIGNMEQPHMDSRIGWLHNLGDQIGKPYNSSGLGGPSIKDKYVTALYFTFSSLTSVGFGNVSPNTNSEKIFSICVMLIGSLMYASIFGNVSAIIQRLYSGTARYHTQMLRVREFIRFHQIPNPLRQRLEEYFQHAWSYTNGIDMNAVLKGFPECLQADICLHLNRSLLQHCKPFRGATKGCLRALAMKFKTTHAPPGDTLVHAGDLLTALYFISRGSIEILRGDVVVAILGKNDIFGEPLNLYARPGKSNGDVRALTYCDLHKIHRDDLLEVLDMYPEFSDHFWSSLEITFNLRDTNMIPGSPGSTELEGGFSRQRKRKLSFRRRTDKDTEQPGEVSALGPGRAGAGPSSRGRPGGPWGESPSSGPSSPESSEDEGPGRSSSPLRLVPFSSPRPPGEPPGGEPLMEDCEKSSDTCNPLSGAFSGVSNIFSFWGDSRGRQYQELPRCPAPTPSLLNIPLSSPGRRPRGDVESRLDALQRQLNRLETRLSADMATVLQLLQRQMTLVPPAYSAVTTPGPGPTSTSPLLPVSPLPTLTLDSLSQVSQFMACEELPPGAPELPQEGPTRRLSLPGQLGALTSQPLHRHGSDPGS

Structure (SMILES): CC1(C)O[C@H]2CC(=O)OC[C@]23[C@H]2CC[C@@]4(C)[C@H](c5ccoc5)OC(=O)[C@H]5O[C@]54[C@]2(C)[C@@H](NC(=O)CCN2CCOCC2)C[C@@H]13.Cl
Activity (Mus musculus [1]): 58.15% | Activity (Mus musculus [2]): 57.35%

Structure (SMILES): COC(=O)C[C@H](OC(C)=O)[C@]1(C)[C@H]2CC[C@@]3(C)[C@H](c4ccoc4)OC(=O)[C@H]4O[C@]43[C@]2(C)[C@H](OC(C)=O)C[C@H]1C(C)(C)O
IC50 (Plasmodium falciparum): 18.3 µM

Structure (SMILES): CC(=O)O[C@@H](c1ccoc1)[C@@H]1CCC[C@H](C)C1=O
MIC50 (Staphylococcus aureus [3]): 12 mg/L (≈ 47.9 µM) | MIC50 (Staphylococcus aureus [4]): 64 mg/L (≈ 256 µM) | MIC50 (Staphylococcus aureus [5]): 128 mg/L (≈ 511 µM) | MIC50 (Staphylococcus aureus [6]): 64 mg/L (≈ 256 µM) | MIC50 (Staphylococcus aureus [7]): 128 mg/L (≈ 511 µM)

Structure (SMILES): CC1(C)O[C@H]2CC(=O)OC[C@@]23[C@H]1C[C@H](NC(=O)CCN1CCOCC1)[C@@]1(C)C2=CC(=O)O[C@@H](c4ccoc4)[C@]2(C)CC[C@@H]13.Cl
Activity (Mus musculus [1]): 24.04% | Activity (Mus musculus [2]): 54.3%

Structure (SMILES): CC1(C)O[C@H]2CC(=O)OC[C@]23[C@H]2CC[C@@]4(C)[C@H](c5ccoc5)OC(=O)[C@H]5O[C@]54[C@]2(C)[C@@H](OC(=O)C/C=C/c2ccccc2)C[C@@H]13
Activity (Tobacco mosaic virus [8]): 65.7% | Activity (Tobacco mosaic virus [9]): 41.7% | Activity (Tobacco mosaic virus [10]): 29.3%

Structure (SMILES): C[C@H]1CCC[C@@H]([C@H](O)c2ccoc2)C1=O
MIC50 (Staphylococcus aureus [3]): 512 mg/L (≈ 2460 µM) | MIC50 (Staphylococcus aureus [4]): 512 mg/L (≈ 2460 µM) | MIC50 (Staphylococcus aureus [5]): 512 mg/L (≈ 2460 µM)

Structure (SMILES): CC(=O)O[C@H](c1ccoc1)[C@@H]1CCC[C@H](C)C1=O
MIC50 (Staphylococcus aureus [3]): 12 mg/L (≈ 47.9 µM) | MIC50 (Staphylococcus aureus [4]): 64 mg/L (≈ 256 µM) | MIC50 (Staphylococcus aureus [5]): 128 mg/L (≈ 511 µM) | MIC50 (Staphylococcus aureus [6]): 64 mg/L (≈ 256 µM) | MIC50 (Staphylococcus aureus [7]): 128 mg/L (≈ 511 µM)

Structure (SMILES): CC1(C)OC(=O)C=C[C@]2(C)[C@H]3CC[C@@]4(C)[C@H](c5ccoc5)OC(=O)[C@H]5O[C@]54[C@]3(C)C(=O)C[C@@H]12 [OBACUNONE]
Activity (Tobacco mosaic virus [8]): 35.2% | Activity (Tobacco mosaic virus [9]): 7.7% | Activity (Tobacco mosaic virus [10]): 21.5%

Structure (SMILES): CC1(C)O[C@H]2CC(=O)OC[C@]23[C@H]2CC[C@@]4(C)[C@H](c5ccoc5)OC(=O)[C@H]5O[C@]54[C@]2(C)OC(=O)C[C@@H]13
Activity (Tobacco mosaic virus [8]): 44.8% | Activity (Tobacco mosaic virus [9]): 13.1% | Activity (Tobacco mosaic virus [10]): 23.6%

MIC (Candida tropicalis): 34 µM | MIC (Cryptococcus neoformans): 34 µM | MIC [11]: 34 µM | MIC (Diutina rugosa): 34 µM | MIC (Candida parapsilosis): 34 µM | MIC (Candida albicans): 34 µM
Structure (SMILES): CC1(C)O[C@@H](CC(=O)NCc2cn(Cc3ccc(Br)cc3)nn2)[C@@]2(CO)[C@H]1CC(=O)[C@@]1(C)C3=CC(=O)O[C@@H](c4ccoc4)[C@]3(C)CC[C@@H]12

Structure (SMILES): CC1(C)O[C@H]2CC(=O)OC[C@]23[C@H]2CC[C@@]4(C)[C@H](c5ccoc5)OC(=O)[C@H]5O[C@]54[C@]2(C)C(=O)C[C@@H]13 [LIMONIN]
Activity (Tobacco mosaic virus [8]): 41.9% | Activity (Tobacco mosaic virus [9]): 5.8% | Activity (Tobacco mosaic virus [10]): 27.4%

Structure (SMILES): C[C@H]1CCC[C@@H]([C@@H](O)c2ccoc2)C1=O
MIC50 (Staphylococcus aureus [3]): 512 mg/L (≈ 2460 µM) | MIC50 (Staphylococcus aureus [4]): 512 mg/L (≈ 2460 µM) | MIC50 (Staphylococcus aureus [5]): 512 mg/L (≈ 2460 µM)

Structure (SMILES): CC(=O)O[C@H]1CC(=O)OC(C)(C)[C@@H]2C[C@@H](OC(C)=O)[C@]3(C)[C@H](CC[C@@]4(C)[C@H](c5ccoc5)OC(=O)[C@H]5O[C@@]534)[C@@]12C
IC50 (Plasmodium falciparum): 16.5 µM

IC50 (HCT-116): 3.28 µM | IC50 (HepG2): 8.45 µM | IC50 (A549): 7.62 µM | IC50 (MDA-MB-231): 5.53 µM
Structure (SMILES): CC1(C)O[C@H]2CC(=O)OC[C@]23[C@H]2CC[C@]4(C)C(=CC(=O)O[C@H]4c4coc(C(=O)CCl)c4)[C@]2(C)OC(=O)C[C@@H]13
IC50 (HOS): 3.88 µM | IC50 (ES-2): 3.65 µM | IC50 (A 172): 1.71 µM

Structure (SMILES): CC1(C)O[C@H]2CC(=O)OC[C@]23[C@H]2CC[C@@]4(C)[C@H](c5coc(C(=O)CCCCN6CCOCC6)c5)OC(=O)[C@H]5O[C@]54[C@]2(C)C(=O)C[C@@H]13
IC50 [12]: > 100 µM

IC50 (HCT-116): 1.6 µM | IC50 (HepG2): 7.1 µM | IC50 (A549): 2.59 µM | IC50 (MDA-MB-231): 0.64 µM
Structure (SMILES): C#CCO[C@H]1C=C(C(C)C)[C@]2(CCCC(=O)O2)[C@H]2CC[C@]3(C)C(=CC(=O)O[C@H]3c3ccoc3)[C@]12C
IC50 (HOS): 1.61 µM | IC50 (ES-2): 0.58 µM | IC50 (A 172): 0.78 µM

Structure (SMILES): CC1(C)OC(=O)C=C[C@]2(C)[C@H]3CC[C@@]4(C)[C@H](c5ccoc5)OC(=O)[C@H]5O[C@]54[C@]3(C)OC(=O)C[C@@H]12
Activity (Tobacco mosaic virus [8]): 56.5% | Activity (Tobacco mosaic virus [9]): 17.5% | Activity (Tobacco mosaic virus [10]): 30%
